Measured values as given in PMC6963822, “Phenolic Compounds from the Aerial Parts of Blepharis linariifolia Pers. and Their Free Radical Scavenging and Enzyme Inhibitory Activities” (Medicines, 2019).

Key:
[1] = DPPH free radical scavenging activity; settings: 20 min, room temperature, absorbance at 520 nm, triplicate
Description: The antioxidant potential was determined using the 1,1- diphenyl-2-picrylhydrazyl (DPPH) radical scavenging method with minor modifications. In a 96-well plate, 25 μL of compound solution of different concentrations were added, followed by the addition of 75 μL of 50% EtOH and 50 μL MES buffer (200 mM, pH = 6.0). Finally, 50 μL of freshly prepared DPPH solution in ethanol (800 μM) were added, and the assay plate was incubated for 20 min in the dark at room temperature. The antioxidant activity corresponding to scavenging of DPPH radicals was measured at 520 nm with UV spectrophotometer using the following formula: Radical scavenging activity (%) = 100 × (A − B)/A, where A is the control absorbance of DPPH radicals without samples and B is the absorbance after reacting with samples. Trolox was used as the positive control.
(§1) All the experiments were performed in triplicate. The data was analyzed using Microsoft Office Excel (2007) and results for DPPH free radical and in vitro enzyme inhibitory activities were expressed as IC50 value (μM).

α-glucosidase [2] = test: α-Glucosidase inhibitory activity; type: biochemical, Saccharomyces cerevisiae; settings: substrate p-nitrophenyl-α-D-glucopyranoside, 37 °C, pH 6.8, triplicate; for IC50: read-out: Enzyme Inhibitory Activities α-Glucosidase IC50
Excerpt: (§2) 1,1-Diphenyl-2-picrylhydrazyl (DPPH) and the enzymes α-glucosidase (from Saccharomyces cerevisiae), porcine pancreatic lipase, and mushroom tyrosinase were purchased from Sigma Aldrich, Co. (Tokyo, Japan). […] Cetilistat was obtained from Combi-Blocks, San Diego, USA, and arbutin was purchased from Nacalai Tesque, Inc. (Kyoto, Japan). 2-Morpholinoethanesulfonic acid monohydrate (MES) was purchased from Dojindo Chemical Research (Kumamoto, Japan).
The α-glucosidase inhibitory activity was determined according to the method reported by Jabeen et al. with slight modifications. In 96-well plate, 60 μL of 0.2 M phosphate buffer (pH = 6.8), 10 μL of the test sample (final concentration range of 100 to 1.56 μg/mL), and 10 μL of α-glucosidase solution (prepared in phosphate buffer to obtain 1 U/mL) were added. The mixture was incubated at 37 °C for 5 min and 20 μL of 4 mM p-nitrophenyl-α-D-glucopyranoside substrate were added. After 12 min of incubation at 37 °C, the released p-nitrophenol was measured at 405 nm using a spectrophotometer. The percentage inhibition of α-glucosidase activity was calculated using the equation: Inhibition (%) = (1 − (Aa − Ab)/(Ac − Ad)) × 100, in which Aa is the absorbance with test sample and enzyme, Ab is the absorbance with test samples but without enzyme, Ac is the absorbance with enzyme but without test sample, and Ad is the absorbance without test samples and enzymes.
as §1

[3] = target: T1, porcine pancreatic lipase (Sus scrofa, UniProt P00591); test: Pancreatic lipase inhibitory activity; type: biochemical; settings: substrate 4-methylumbelliferyl oleate, pH 7.4, triplicate; for IC50: read-out: Enzyme Inhibitory Activities Lipase IC50
T1 construct: purchased Sigma Aldrich, Co. (Tokyo, Japan)
T1 sequence (P00591 1-450): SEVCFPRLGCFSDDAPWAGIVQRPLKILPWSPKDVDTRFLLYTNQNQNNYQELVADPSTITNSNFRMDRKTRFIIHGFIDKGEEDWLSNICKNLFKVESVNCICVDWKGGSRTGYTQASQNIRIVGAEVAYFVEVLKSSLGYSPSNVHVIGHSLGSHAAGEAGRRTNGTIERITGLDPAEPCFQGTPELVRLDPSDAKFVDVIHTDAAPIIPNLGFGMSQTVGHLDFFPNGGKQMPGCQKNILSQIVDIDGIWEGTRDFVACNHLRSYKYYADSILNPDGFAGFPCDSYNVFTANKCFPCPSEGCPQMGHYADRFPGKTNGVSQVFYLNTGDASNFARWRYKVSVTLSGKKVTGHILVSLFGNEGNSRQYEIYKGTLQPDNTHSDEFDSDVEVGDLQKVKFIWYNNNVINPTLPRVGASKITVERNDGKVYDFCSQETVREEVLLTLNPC
Excerpt: as §2
Evaluation of pancreatic lipase inhibitory activity was performed by measuring the release of 4-methylumbelliferone (4MUF) from the substrate 4-methylumbelliferyl oleate (4MUFO) as reported by Bitou et al. with slight modifications. Briefly, 50 μL of the test sample and 50 μL of pancreatic lipase (100 μg/mL in phosphate buffer of 0.2 M, pH 7.4) were mixed and incubated at room temperature for 10 min. Afterward, 100 μL of the substrate 4MUFO (0.5 mM) was added. After 10 min, the fluorescence from the release of 4MUF was measured using a microplate reader with excitation and emission wavelengths of 355 and 460 nm, respectively. Cetilistat was used as the positive control. The percentage of pancreatic lipase inhibitory activity was calculated using the following equation: Inhibition (%) = (1 − (As/Ac) × 100), where As and Ac are the absorbance of sample and control, respectively.
as §1

mushroom tyrosinase [4] = test: Tyrosinase inhibitory activity; type: biochemical, Agaricus bisporus; settings: substrate L-tyrosine, 25 °C, pH 6.8, triplicate; read-out: Enzyme Inhibitory Activities Tyrosinase IC50
Excerpt: Antioxidants are substances that scavenge free radicals and related reactive species. Free radicals amend vital body composition such as lipids and proteins, resulting in serious conditions such as inflammatory conditions, atherosclerosis, and cancerous diseases. Therefore, dietary antioxidants are undertaken for enhancing health conditions for people under precarious sanitary conditions or to prevent serious and chronic illnesses such as neurodegenerative diseases, diabetes, and hyperlipidemia. Diabetes mellitus (DM) is a metabolic disorder characterized by high blood glucose, which is likely to cause serious side effects such as retinopathy and cataracts. […] Obesity is another example of a metabolic disorder associated with several co-morbidities, with an increasing prevalence every year. Excessive lipid accumulation could be one of the causative factors for type II diabetes, as the accumulation of lipid in the pancreas causes dysfunction of insulin-producing pancreatic β-cells. […] Tyrosinase is a key enzyme in the process of melanin synthesis. It has been isolated and identified from different sources. Among them, mushroom tyrosinase, from Agaricus bisporus, is a major source and is widely used due to its high similarity and homology to human tyrosinase. Despite the important protective role of melanin against UV-sunlight radiation, excess accumulation of this pigment results in harmful skin disorders and severe cases may cause skin cancer. […] (Tokyo, Japan). […] obtained from Combi-Blocks, San Diego, USA, and arbutin was purchased from Nacalai Tesque, Inc. (Kyoto, Japan). 2-Morpholinoethanesulfonic acid monohydrate (MES) was purchased from Dojindo Chemical Research (Kumamoto, Japan). The tyrosinase inhibitory activity was evaluated using the method reported by […] et al., with slight modifications. […] The mixture was incubated at 25 °C for 10 min. Finally, 20 μL of the substrate L-tyrosine (2 mM) were added, and the absorbance was measured at 476 nm. […] Arbutin was used as the positive control. […] All the experiments were performed in triplicate. The data was analyzed using Microsoft Office Excel (2007) and results for DPPH free radical and in vitro enzyme inhibitory activities were expressed as IC50 value (μM).

α-glucosidase [5] = tested on: α-glucosidase; parameters: method as in PMID 27581205; settings: cited from earlier work
mushroom tyrosinase [6] = settings: cited from earlier work

Row | IC50 [1] [µM] | IC50 (α-glucosidase [2]) [µM] | Enzyme Inhibitory Activities Lipase IC50 [3] | IC50 [3] [µM] | IC50 (mushroom tyrosinase [4]) [µM] | Enzyme Inhibitory Activities α-Glucosidase IC50 (α-glucosidase [2]) | Compound | mode of α-glucosidase inhibition (α-glucosidase [5]) | inhibitory activity for mushroom tyrosinase (mushroom tyrosinase [6]) | tyrosinase inhibitory activity (mushroom tyrosinase [6])
1 | 186.2 ± 1.19 | 46.3 ± 2.92 | active | 2.25 ± 0.17 | 136.1 ± 0.78 | – | O=C(/C=C/c1ccc(O)cc1)OC[C@H]1O[C@@H](Oc2cc(O)c3c(c2)OC(c2ccc(O)cc2)CC3=O)[C@H](O)[C@@H](O)[C@@H]1O (some centres unmarked) [6″-O-p-Coumaroylprunin (4), 6″-O-p-coumaroylprunin] | – | – | –
2 | 386.3 ± 3.42 | 34.7 ± 1.78 | active | 12.5 ± 2.04 | 23.1 ± 1.83 | – | O=c1cc(-c2ccc(O)cc2)oc2cc(O)cc(O)c12 [Apigenin (3), apigenin] | reversibly inhibit α-glucosidase in a noncompetitive manner | – | –
3 | – | – | – | – | 436 ± 3.71 | – | OC[C@H]1O[C@@H](Oc2ccc(O)cc2)[C@H](O)[C@@H](O)[C@@H]1O [Arbutin, arbutin, reference compound] | – | – | –
4 | – | – | – | 18.4 ± 1.71 | – | – | CCCCCCCCCCCCCCCCOc1nc2ccc(C)cc2c(=O)o1 [Cetilistat, reference compound] | – | – | –
5 | 39.07 ± 0.31 | – | – | – | – | – | Cc1c(C)c2c(c(C)c1O)CCC(C)(C(=O)O)O2 (centres unmarked) [Trolox, 6-Hydroxy-2,5,7,8-tetramethylchroman-2-carboxylic acid, reference compound] | – | – | –
6 | 217 ± 3.01 | – | inactive | – | – | neither showed inhibitory activities | COc1cc(C(=O)O)ccc1O [Vanillic acid (2), vanillic acid] | – | did not show any inhibitory activity | weak
7 | 22.03 ± 0.04 | – | inactive | – | 97.4 ± 2.48 | neither showed inhibitory activities | C[C@@H]1O[C@@H](O[C@@H]2[C@@H](O)[C@H](OCCc3ccc(O)c(O)c3)O[C@H](CO)[C@H]2OC(=O)/C=C/c2ccc(O)c(O)c2)[C@H](O)[C@H](O)[C@H]1O [Verbascoside (1), verbascoside] | – | – | –
